Measurements taken from patent publication US8841414B1, “Targeted delivery of therapeutic peptides by thermally responsive biopolymers” (University of Mississippi Medical Center, priority 2006, dated 2014).
Where two headings read alike, the source gives them in different places.

How the values were obtained:
MCF-7 cells [1] = experiment: Drug IC50 with and without polypeptide pretreatment (MTS cell viability assay); type: cell-based; settings: for IC50: Homo sapiens, MCF7
Description: The effect of drug concentration on cell viability for Dox (A) or etoposide (B) was determined with and without Pen-ELP-H1 pretreatment. Cells were pretreated on day 1 with 20 μM Pen-ELP-H1 and treated on day 4 with drug. Viability was determined on day 7 using the MTS cell viability assay. A single representative experiment is shown (error bars=SD).
The ability of Pen-ELP-H1 to enhance the effectiveness of chemotherapeutic agents was tested in MCF-7 breast cancer cells. Cells were treated on day 1 with 20 μM Pen-ELP-H1 or a control polypeptide which lacks the c-Myc inhibitory sequence (Pen-ELP) for 1 h, rinsed, and placed in fresh media for 3 days. On day 4, the cells were exposed to the drugs at various concentrations for 72 h, and viability was assessed using the MTS cell viability assay. […] Data from the MTS assay was averaged and fit using an exponential equation in order to calculate the IC50 with and without pretreatment.
Table 3. […] Statistical significance was assessed using an unpaired Student's t-test.

HeLa cells = experiment: Drug IC50 with and without Pen-ELP-H1 pretreatment; type: cell-based, human; settings: for IC50: Homo sapiens
Description: (§1) Table 4. IC50 values were collected for HeLa and MES-SA cells. The Dox and etoposide IC50 was determined with and without Pen-ELP-H1 pretreatment. Curves were fit using an exponential equation, and the IC50 value shown represents the mean±SEM of at least 5 independent determinations each performed with 4 replicates per drug concentration. Statistical significance was assessed using an unpaired Student's t-test.

MES-SA cells = experiment: Drug IC50 with and without Pen-ELP-H1 pretreatment; type: cell-based; settings: for IC50: Homo sapiens
Description: as §1

MCF-7 cells [2] = experiment: Cell cycle distribution by BrdU and propidium iodide flow cytometry; type: cell-based; settings: for effect on cell cycle distribution: agent alone (Pen-ELP-H1 20 μM, Dox 100 nM, etoposide 1 μM); for G1 fraction / S phase fraction: day 5
Description: FIG. 31 is a set of graphs that show cell cycle analysis of MCF-7 Cells after Pen-ELP-H1 Pretreatment before Dox or Etoposide. A. Cells were pretreated with 20 μM Pen-ELP-H1 on day 1 and 100 nM Dox or 1 μM etoposide on day 4 and analyzed on day 5 by flow cytometry with BrdU and propidium iodide staining Raw data for a single representative experiment is shown. 4 independent experiments with Dox (B) and etoposide (C) were averaged. Percentages were determined by analysis of 5000 cells/sample, and results shown represent the mean±SEM.
To gain more insight into the effect of polypeptide and drug treatment, the cell cycle distribution of MCF-7 cells was examined. Cells were treated as above with 20 μM Pen-ELP-H1 on day 1 and Dox (100 nM) or etoposide (1 μM) on day 4. On day 5, the cells were pulsed with BrdU and stained with propidium iodide for flow cytometric analysis of the cell cycle distribution. BrdU was used to accurately estimate the fraction of cells in S-phase, and this was combined with propidium iodide staining to denote each phase of the cell cycle (FIG. 31A). […] The pattern observed with Dox was enhanced upon pretreatment with Pen-ELP-H1, where the G1 fraction increased from about 48% to 53%, and the S phase fraction was reduced from 8% to 5% as compared to treatment with Dox alone (FIG. 31B).

c-Myc = c-Myc (UniProt P01106); experiment: cell-based or functional assay
Sequence of UniProt P01106 (P01106 whole entry): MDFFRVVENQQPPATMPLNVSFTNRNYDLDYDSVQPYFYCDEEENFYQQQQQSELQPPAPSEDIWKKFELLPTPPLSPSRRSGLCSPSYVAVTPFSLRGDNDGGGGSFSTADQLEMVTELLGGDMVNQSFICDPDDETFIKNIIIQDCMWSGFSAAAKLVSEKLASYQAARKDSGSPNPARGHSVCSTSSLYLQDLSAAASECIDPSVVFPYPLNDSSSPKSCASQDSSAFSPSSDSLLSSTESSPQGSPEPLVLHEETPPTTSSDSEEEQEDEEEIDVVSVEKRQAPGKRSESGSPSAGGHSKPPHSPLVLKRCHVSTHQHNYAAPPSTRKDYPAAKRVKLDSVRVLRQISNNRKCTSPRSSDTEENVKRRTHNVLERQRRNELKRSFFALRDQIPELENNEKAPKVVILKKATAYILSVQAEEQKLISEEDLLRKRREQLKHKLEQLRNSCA

MCF-7 cells [3] = experiment: Dox/etoposide toxicity after pretreatment with DFMO and/or Pen-ELP-H1 (MTS); type: cell-based; settings: then Dox 750 nM for 72 h
Description: FIG. 33-1 is a set of graphs that show proliferation with DFMO and Dox or Etoposide. Cells were pretreated with 20 μM Pen-ELP-H1 or 50 μM DFMO on day 1, and treated with 750 nM Dox (A) or 200 μM etoposide (B) on day 4. Cell viability was determined on day 7 using the MTS cell viability assay. Results represent the mean±SEM of 3 independent experiments.
As a transcription factor, c-Myc influences the transcription levels of a large variety of genes. One of the genes under c-Myc control encodes the enzyme ODC (140). ODC catalyzes the first and rate-limiting step in the synthesis of cellular polyamines (148). […] Above, it was shown that interruption of the c-Myc/Max heterodimer by the Pen-ELP-H1 polypeptide caused a reduction in the steady-state levels of ODC mRNA to less than 40% of control levels (93). This observation led to the hypothesis that modulation of Dox and etoposide toxicity may be due to a reduction in the amount of ODC in the cell. In order to test this hypothesis, a combination of pretreatment with the ODC inhibitor DFMO and/or Pen-ELP-H1 was used in the Dox and etoposide toxicity assay. MCF-7 cells were pretreated with Pen-ELP-H1 (20 μM), DFMO (50 μM), or both before a 72 h exposure to Dox (750 nM) or etoposide (200 μM). […] Similar results were obtained with Pen-ELP-H1 and/or DFMO combined with etoposide (FIG. 33-1 B).

Panc-1 cells = experiment: Panc-1 proliferation with 5-FU alone or after Bac7-ELP1-p21 pretreatment (MTS); type: cell-based, human
Description: Panc-1 cells were treated for 72 h with 5-F-U with or without pre-treatment with Bac7-ELP1-p21 for 1 hr at 42° C. Cell proliferation was assessed by the MTS assay. Bars, SEM of 3 experiments.
Resistance to Current Chemotherapeutic Agents: One of the therapeutic agents currently used in the clinical setting for pancreatic cancer is 5-Fluorouracil (5-FU).

[4] = 20 μM Pen-ELP on day 1, drug on day 4 for 72 h, read-out: IC50 after Pen-ELP pretreatment (mean ± SEM)
[5] = 20 μM Pen-ELP-H1 on day 1, drug on day 4 for 72 h, read-out: IC50 after Pen-ELP-H1 pretreatment (mean ± SEM)
[6] = no pretreatment, 72 h drug exposure, read-out: IC50 (mean ± SEM)
[7] = no pretreatment, read-out: IC50 (mean ± SEM)
[8] = read-out: IC50 after Pen-ELP-H1 pretreatment (mean ± SEM)
[9] = Dox 100 nM after 20 μM Pen-ELP-H1 pretreatment

Molecule | IC50 (MCF-7 cells [1]; [4]) | IC50 (MCF-7 cells [1]; [5]) | IC50 (MCF-7 cells [1]; [6]) | reduction in IC50 with Pen-ELP-H1 pretreatment (MCF-7 cells [1]; MCF-7) | reduction of IC50 by Pen-ELP-H1 pretreatment (HeLa cells) | IC50 (HeLa cells; [7]) | IC50 (HeLa cells; [8]) | reduction of IC50 by Pen-ELP-H1 pretreatment (MES-SA cells) | IC50 (MES-SA cells; [7]) | IC50 (MES-SA cells; [8]) | effect on cell cycle distribution (MCF-7 cells [2]) | also measured
COc1cc([C@@H]2c3cc4c(cc3[C@@H](O[C@@H]3O[C@@H]5CO[C@@H](C)O[C@H]5[C@H](O)[C@H]3O)[C@H]3COC(=O)[C@H]23)OCO4)cc(OC)c1O [Etoposide] | 187000 ± 13800 nM | 141000 ± 3500 nM | 210000 ± 12400 nM | about 1.5 fold | 1.4 fold | 630 ± 59.2 nM | 465 ± 45.4 nM | 1.8 fold | 17300 ± 3100 nM | 9800 ± 3100 nM | accumulation in both G1 and G2/M | effect on cell cycle distribution after Pen-ELP-H1 pretreatment (MCF-7 cells [2]; 20 μM Pen-ELP-H1 day 1, etoposide 1 μM day 4): slightly enhanced the etoposide-induced accumulation in G1
Pen-ELP1-H1 |  |  |  |  |  |  |  |  |  |  |  | steady-state levels of ODC mRNA (% of control levels) (c-Myc): < 40
NCCC[C@](N)(C(=O)O)C(F)F [DFMO, α-difluoromethylornithine] |  |  |  |  |  |  |  |  |  |  |  | enhancement of Dox-induced cell killing by pretreatment (MCF-7 cells [3]; Pen-ELP-H1 20 μM or DFMO 50 μM): enhanced the Dox-induced cell killing by similar amounts; enhancement of Dox toxicity by pretreatment with the combination of Pen-ELP-H1 and DFMO (MCF-7 cells [3]; Pen-ELP-H1 20 μM plus DFMO 50 μM): no greater enhancement of Dox toxicity than either agent used alone
COc1cccc2c1C(=O)c1c(O)c3c(c(O)c1C2=O)C[C@@](O)(C(=O)CO)C[C@@H]3O[C@H]1C[C@H](N)[C@H](O)[C@H](C)O1 [Doxorubicin] | 777 ± 75.1 nM | 504 ± 35.3 nM | 752 ± 21.6 nM | about 1.5 fold | 1.5 fold | 13.9 ± 1.3 nM | 9.4 ± 1.2 nM | 2 fold | 33.7 ± 7.1 nM | 16.3 ± 1.6 nM | arrest in G1 and G2/M at the expense of S phase | G1 fraction (MCF-7 cells [2]; [9]): 53%; S phase fraction (MCF-7 cells [2]; [9]): 5%; G1 fraction (MCF-7 cells [2]; Dox 100 nM alone): about 48%; S phase fraction (MCF-7 cells [2]; Dox 100 nM alone): 8%
O=c1[nH]cc(F)c(=O)[nH]1 [5-FU, 5-Fluorouracil] |  |  |  |  |  |  |  |  |  |  |  | sensitivity of Panc-1 cells to treatment (Panc-1 cells; 72 h): highly resistant; effect of increasing the concentration on cell proliferation (Panc-1 cells; beyond 10 μM, 72 h): no increasing effect on cell proliferation; cell proliferation after pretreatment with Bac7-ELP1-p21 (Panc-1 cells; pretreated 1 h at 42° C. with Bac7-ELP1-p21, then 5-FU 72 h): dramatically reduced
CC[C@@]1(O)C(=O)OCc2c1cc1n(c2=O)Cc2cc3ccccc3nc2-1 [Camptothecin] | 229 ± 46.4 nM | 235 ± 5.8 nM | 235 ± 9.8 nM |  |  |  |  |  |  |  |  | effect of Pen-ELP-H1 or Pen-ELP pretreatment on cell killing by the drug (MCF-7 cells [1]; MCF-7): no significant effect
